Reference: publication PMC2362691, “A phase I study of the lipophilic thymidylate synthase inhibitor Thymitaq™ (nolatrexed dihydrochloride) given by 10-day oral administration” (British Journal of Cancer, 1999)
“And” between values parts separate entries of the source, which are not always exact repeats. Equal entries are not always repeated. Where two headings read alike, the source gives them in different places.

How the values were obtained:
[1] = design: method as in earlier work; conditions: clinical trial, ref Calvert et al, 1986, 1987, Bassendine et al, Cantwell et al, 1988; cited from earlier work
thymidylate synthase = assay: Plasma deoxyuridine (dUrd) concentrations, pretreatment vs day 10; assay type: in vivo, cancer patients
[2] = in vivo
[3] = rats fasted before treatment, introduction, no reference given, cited from earlier work
[4] = no reference given, cited from earlier work; for bioavailability of proposed clinical formulation: capsules with microcrystalline cellulose and crospovidone, dosing preceded and followed by water gavage
[5] = design: method as in Rafi et al, 1996; conditions: patients, 5-day oral administration; ref Rafi et al, 1996; cited from earlier work
[6] = design: method as in Rafi et al, 1995; conditions: continuous 24-h infusion, ref Rafi et al, 1995, cited from earlier work
[7] = cited from earlier work
[8] = cited from earlier work; remark: listed apart in the source
[9] = Phase I study of 10-day oral nolatrexed (6 hourly, every 21 days): toxicity by CTC grade; conditions: 6 hourly for 10 days, repeated at 3-weekly intervals (143 mg m-2 every 6 h)
[10] = design: method as in Jodrell et al, 1991; conditions: ref Jodrell et al, 1991; cited from earlier work
[11] = 10-day intravenous infusion, 716 mg m-2 day-1, ref Creaven et al (1998)
[12] = 5-day intravenous infusion, ref Rafi et al, 1998

C#CCN(Cc1ccc2nc(N)[nH]c(=O)c2c1)c1ccc(C(=O)N[C@@H](CCC(=O)O)C(=O)O)cc1 [CB 3717, N10-propargyl-5,8-dideazafolic acid]
toxicity that led to abandoned development [1]: sporadic and unpredictable nephrotoxicity and myelotoxicity

Cc1ccc2nc(N)[nH]c(=O)c2c1Sc1ccncc1.Cl.Cl [nolatrexed, 2-Amino-3,4-dihydro-6-methyl-4-oxo-5-(4-pyridylthio)-quinazoline dihydrochloride]
elevation in plasma dUrd compared with baseline (thymidylate synthase; 429 mg m-2 day-1, in three out of four patients with data): > 75%
rise of plasma dUrd concentration, median (thymidylate synthase; day 10 vs pretreatment, 12 out of 23 patients, all dose levels): 90 % of baseline
dose level that could be considered for phase II testing ([2]; human, 10 days): 429 mg m-2 day-1
doses at which thrombocytopenia (grade 1 or 2) occurred ([2]; human, po, 10 days): ≥ 318 mg m^−2day^−1
additional patients with increased sensitivity to sunlight, no apparent rash [2]: five
patients with elevation of serum bilirubin [2]: nine
patients with skin rash [2]: eight
patients who achieved disease stabilization (human, in vivo): three
patients with progressive disease on treatment (ten out of 23 patients had evaluable disease): seven
oral bioavailability ([3]; 20 mg kg-1 (120 mg m-2)): 53%
oral bioavailability ([3]; 40 mg kg-1 (240 mg m-2)): 50%
oral bioavailability ([3]; 80 mg kg-1 (480 mg m-2)): 30%
bioavailability of proposed clinical formulation ([4]; one dog): 70% and 107%
bioavailability of proposed clinical formulation ([4]; second dog): 87%
bioavailability ([4]; dogs fasted overnight, in 5% dextrose by gavage, introduction): > 90%
oral bioavailability [5]: 70–100%
systemic toxicity ([6]; maximum dose administered 1073 mg m-2): no systemic toxicity
local toxicity (phlebitis), CTC grade [6]: 2 CTC grade
patients who completed the dose level [7, 11]: zero out of three
patients with grade 4 myelosuppression [7, 11]: two out of three
patients with dose-limiting myelosupression ([7]; in vivo, iv): one out of four
duration of partial response ([8]; 5-day intravenous infusion, one patient with metastatic colorectal cancer, ref Rafi et al, 1998): 3 months
dose-limiting toxicity [8, 12]: neutropenia
maximum tolerated dose [8, 12]: 904 mg m-2 day-1
recommended phase II dose [8, 12]: 800 mg m-2 day-1
clearance ([8]; supported by median trough values of this study, ref Rafi et al (1998)): dose dependent
maximum tolerated dose [9]: 572 mg m-2 day-1

Cc1nc2ccc(CN(C)c3ccc(C(=O)N[C@@H](CCC(=O)O)C(=O)O)s3)cc2c(=O)[nH]1 [raltitrexed]
nephrotoxicity [10]: non-nephrotoxic
